Assay results taken from patent US20230278972A1, “SUBSTITUTED HALOALKYL SULFONANILIDE HERBICIDES” (FMC Corporation, priority 2020, published 2023).
Where two headings read alike, the source gives them in different places.

How the values were obtained:
[1] = system: Ryegrass, Italian (Italian ryegrass, Lolium multiflorum); test: Test A postemergence, Ryegrass, Italian; format: in vivo; details: Lolium multiflorum, post-emergence, 240 h, Postemergence, 0 to 100 scale (0 no effect, 100 complete control); for pest or weed control at 125 g/ha: 125 g ai/ha; for pest or weed control at 500 g/ha: 500 g ai/ha
Procedure, shortened: (§1)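 Compounds in non-phytotoxic solvent with surfactant. Soil: loam/sand. Preemergence via directed soil spray after seeding; postemergence on seedlings 2–10 cm, one- to two-leaf.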

[2] = system: Foxtail, Giant (giant foxtail, Setaria faberi); test: Test A preemergence, Foxtail, Giant; format: in vivo; details: Setaria faberi, pre-emergence, 240 h, Preemergence; for pest or weed control at 125 g/ha: 125 g ai/ha, visual injury on 0 to 100 scale (0 no effect, 100 complete control), approximately 10 days, read-out: Foxtail, Giant plant response rating; for pest or weed control at 500 g/ha: 500 g ai/ha, 0 to 100 scale (0 no effect, 100 complete control), read-out: Plant response rating, Foxtail, Giant
Procedure, shortened: as §1

corn (Zea mays) = test: Test A postemergence, corn; format: in vivo; details: Zea mays, post-emergence, 240 h, Postemergence, 0 to 100 scale (0 no effect, 100 complete control); for Corn plant response rating (crop injury, 0 = no effect, 100 = complete kill) at 125 g/ha: 125 g ai/ha, visual injury approx. 10 days
Procedure, shortened: as §1

[3] = system: wheat (Triticum aestivum); test: Test A postemergence, wheat; format: in vivo; details: Triticum aestivum, post-emergence, 240 h, Postemergence, 0 to 100 scale (0 no effect, 100 complete control); for plant injury at 125 g/ha: 125 g ai/ha; for plant injury at 500 g/ha: 500 g ai/ha
Procedure, shortened: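 Test chemicals, formulated in a non-phytotoxic solvent mixture with surfactant, were sprayed postemergence on plants 2 to 10 cm tall at the one- to two-leaf stage. Preemergence treatment was a directed soil spray onto freshly seeded pots. Both used a loam soil and sand blend.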

[4] = system: barnyardgrass (Echinochloa crus-galli); test: Test B flooded paddy test, barnyardgrass; details: 336 h, read-out: Plant response rating, Barnyardgrass

SMILES	pest or weed control at 125 g/ha ([1]; read-out: Plant response rating, Ryegrass, Italian)	pest or weed control at 500 g/ha ([1]; visual injury vs untreated controls after approx. 10 days, read-out: Ryegrass, Italian plant response rating)	pest or weed control at 125 g/ha [2]	pest or weed control at 500 g/ha [2]	Corn plant response rating (crop injury, 0 = no effect, 100 = complete kill) at 125 g/ha (corn (Zea mays))	plant injury at 500 g/ha (corn (Zea mays); 500 g ai/ha, visual injury vs untreated controls after approx. 10 days, read-out: Corn plant response rating)	plant injury at 125 g/ha ([3]; read-out: Plant response rating, Wheat)	plant injury at 500 g/ha ([3]; visual injury vs untreated controls after approx. 10 days, read-out: Wheat plant response rating)	pest or weed control at 250 g/ha [4]	pest or weed control at 125 g/ha ([1]; visual injury approx. 10 days, read-out: Plant response rating, Ryegrass, Italian)	pest or weed control at 500 g/ha ([1]; visual injury, approx. 10 days, read-out: Plant response rating, Ryegrass, Italian)	Corn plant response rating (crop injury, 0 = no effect, 100 = complete kill) at 500 g/ha (corn (Zea mays); 500 g ai/ha, visual injury, approx. 10 days)	plant injury at 125 g/ha ([3]; visual injury approx. 10 days, read-out: Plant response rating, Wheat)	plant injury at 500 g/ha ([3]; visual injury, approx. 10 days, read-out: Plant response rating, Wheat)
Cc1cc(C)c(N(COC(=O)C(C)(C)C)S(=O)(=O)C(F)(F)F)cc1C1=NOC2(CCCC2)C1 [Compound 140, [[2,4-Dimethyl-5-(1-oxa-2-azaspiro[4.4]non-2-en-3-yl)phenyl][(trifluoromethyl)sulfonyl]amino]methyl 2,2-dimethylpropanoate]	0%	20%	20%	90%	0%	30%	0%	60%	95%	–	–	–	–	–
Cc1cc(Cl)c(NS(=O)(=O)C(F)(F)F)cc1C(=O)N1CCOCC1 [Compound 16, N-[2-Chloro-4-methyl-5-(4-morpholinylcarbonyl)phenyl]-1,1,1-trifluoromethanesulfonamide]	–	–	30%	100%	0%	–	–	–	25%	50%	70%	50%	50%	70%
